The target of one series is dopamine D2s receptor (Homo sapiens, UniProt P14416). Briefly: Dopamine D2s receptor competition binding ([3H]spiperone).
The target in series [1] is T1, serotonin 5-HT2A receptor (Homo sapiens, UniProt P28223).
T1 construct: expressed in transfected cells
The experiment in a line: 5-HT2A receptor radioligand competition binding ([3H]-ketanserin). Conditions: human cloned receptor, CHO-K1 membranes, 1 nM [3H]-ketanserin; ± S.E.M., n = 3 in duplicate; read-out: Affinity Ki 5-HT2A. On the technique in general: Loss of bound radioactivity is the signal in a displacement assay; it reports binding, not function.

The target in another series is T2, dopamine D1 receptor (Homo sapiens, UniProt P21728).
T2 construct: expressed in transfected cells
T2 sequence (P21728 whole entry): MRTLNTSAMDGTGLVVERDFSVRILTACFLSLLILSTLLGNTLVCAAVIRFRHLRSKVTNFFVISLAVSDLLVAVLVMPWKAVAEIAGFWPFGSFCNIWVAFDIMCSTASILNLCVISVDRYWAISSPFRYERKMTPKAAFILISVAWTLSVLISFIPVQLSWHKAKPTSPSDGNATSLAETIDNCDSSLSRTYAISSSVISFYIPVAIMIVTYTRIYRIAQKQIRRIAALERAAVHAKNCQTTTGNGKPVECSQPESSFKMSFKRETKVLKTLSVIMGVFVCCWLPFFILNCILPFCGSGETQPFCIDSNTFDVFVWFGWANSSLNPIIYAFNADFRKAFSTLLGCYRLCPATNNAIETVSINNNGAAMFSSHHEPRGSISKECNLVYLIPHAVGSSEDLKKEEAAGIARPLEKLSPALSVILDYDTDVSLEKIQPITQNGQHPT
Briefly: Dopamine D1 receptor competition binding ([3H]-SCH23390). Conditions: HEK-293 membranes, [3H]-SCH23390 0.3 nM, mean (CI 95%), read-out: Affinity Ki D1. The protocol: (§1) The final compounds were tested for their affinity at serotonin 5-HT1A, 5-HT2A, and 5-HT7 receptors and at dopamine D1, D2, D3, and D5 receptors. As a first step, competition radioligand binding assays were carried out for all the compounds at the single concentration of 10 µM, on membrane preparations from stable cell lines heterologously expressing the human cloned 5-HT1A, 5-HT2A, or 5-HT7 receptors. […] For the affinity determination at dopamine receptor subtypes, membrane fractions of human dopamine D2s, D3, D1, and D5 receptor-expressing cells were used. They were co-incubated with [^3H]spiperone (for D2s and D3 receptor) or [^3H]SCH23390 (for D1 and D5 receptor) and appropriate concentrations of test compound for 120 min. Bound radioligand was separated from the free ligand using filtration. Radioactivity was measured by liquid scintillation counting.
(§2) The affinity for dopamine D1 and D5 receptors was evaluated in membrane fractions of HEK-293 cells stably expressing the human dopamine D1 or D5 receptor. HEK-293-D1 cells were cultured in DMEM/F12 (15 mM HEPES, 1.2 g/L NaHCO3) with 10% (v/v) FBS and 1% (v/v) L-glutamine. HEK-293-D5 cells were cultured in DMEM/F12 (with L-glutamine, 1.2 g/L NaHCO3) with 20% (v/v) FBS. Preparation of membrane fractions and radioligand competition assays were performed as previously described. Briefly, membrane fractions were co-incubated with [^3H]-SCH23390 (0.3 nM) and different concentrations of test compound for 120 min at room temperature. Fluphenazine (100 µM) was used to determine non-specific binding and as reference compound.
(§3) Data of at least three independent experiments in triplicate were analyzed using GraphPad Prism 8.1 (San Diego, CA, USA). Binding curves were fitted to a non-linear regression model (one-site competition). Ki values were calculated from IC50 values using the Cheng–Prusoff equation. The statistical calculations were performed on –log(Ki).

A further series has as its target T3, dopamine D5 receptor (Homo sapiens, UniProt P21918).
T3 construct: expressed in transfected cells
Briefly: Dopamine D5 receptor competition binding ([3H]-SCH23390). Particulars: HEK-293 membranes, [3H]-SCH23390 0.3 nM, mean (CI 95%), read-out: Affinity Ki D5. The protocol: as §1, §2, §3

Series [2] is described as follows: Stability assay in rat liver microsomes. It is filed as in vitro ADME. Particulars: NADPH-regenerating system; for remaining at 30 min, 10 μM: pH 7.4, rat liver microsomes, 30 min incubation, read-out: Metabolic Stability (percentage of recovery of the parent compound); for in vitro metabolic stability (in words): rat microsomes, 30 min. The protocol:
To evaluate the susceptibility to first-pass oxidative metabolism, the leading cause of metabolic degradation in vivo [17] the target compounds were incubated with rat liver microsomes. The turnover of the parent compound was assessed as the percentage of the parent compound recovered after 30 min of incubation with microsomes in the presence of an NADPH-regenerating system.
Test compounds were pre-incubated at 37 °C with rat liver microsomes (Tebu-Bio, Milan, Italy) (1.0 mg/mL microsomal protein) at 10 μM final concentration in 100 mM potassium phosphate buffer (pH 7.4) for 10 min. Metabolic reactions were initiated by the addition of the NADPH regenerating system (containing 10 mM NADP, 50 mM glucose-6-phosphate, and 10 unit/mL glucose-6-phosphate dehydrogenase, final glucose-6-phosphate dehydrogenase concentration, 1 unit/mL). After 30 min incubation, the reaction mixture was quenched by adding an equal volume of cold acetonitrile containing the internal standard. A test compound incubated with microsomes without NADPH regenerating system was included. Quenched samples were centrifuged at 4500 rpm for 15 min and the supernatants were injected for quantification analysis. Samples (100 μL) were analyzed by using an Agilent 1260 Infinity Binary LC System equipped with a diode array detector (Open Lab software was used to analyze the chromatographic data) and a Phenomenex Gemini C-18 column (250 mm × 4.6 mm, 5 μm particle size). The samples were eluted using CH3CN/20 mM ammonium formate pH 5.5 (7:3, v/v) as eluent (volumetric flow rate =1 mL/min). Concentrations were quantified by measuring the area under the peak.
The percentage of the parent compound remaining after a 30-min incubation was calculated according to the equation:% of parent compound remaining after 30 min = Cparent/Ccontrol × 100(1) where Cparent is ligand concentration after incubation with microsome fraction and NADPH regenerating system and Ccontrol is ligand concentration after incubation with microsome fraction only.
In general terms: Liver microsomes are vesicles of endoplasmic reticulum, rich in cytochrome P450 enzymes.

In series [3] the test system is SH-SY5Y neuroblastoma cells. The experiment in a line: Neuroprotection against H2O2 in SH-SY5Y cells (MTT assay). It is filed as cell-based, human. Conditions: 3 h pretreatment, both concentrations (1 μM and 5 μM), then 400 μM H2O2 24 h. On the procedure:
Treatment of SH-SY5Y cells with 400 μM H2O2 for 24 h led to a reduction of cell viability of 72–76% (Figure 3). The protective effect of each compound was determined by pretreating the cells with the test compound for 3 h at the non-toxic doses of 1 μM and 5 μM, and subsequent treatment with 400 μM H2O2 for an additional 24 h.
SH-SY5Y neuroblastoma cells (cat. CRL-2266, ATCC) were cultured in a 1:1 mixture of Eagle’s Minimum Essential Medium (cat. 15-010-CVR, Corning) and Ham’s F12 medium (cat. 10-080-CVR, Corning). This medium was supplemented with 10% (v/v) Fetal Bovine Serum (cat. 35-079-CV, Corning), 1% (v/v) Glutamine (cat. ECB3000D, Euro Clone) and 1% (v/v) Penicillin—Streptomycin (cat.30-002-CI, Corning). Cells were cultivated at 37 °C with 5% CO2 at saturated humidity.
Determination of neuroprotection against H2O2 was performed using the MTT assay at 24 h. On day 1, 25,000 cells/well were seeded into 96-well plates in a volume of 100 μL. On day 2, the cells were pretreated (3 h) with two drug concentrations (1 μM and 5 μM) before being incubated with 400 μM H2O2 for 24 h. In all the experiments, the various drug-solvents (EtOH, DMSO) were added in each control to evaluate a possible solvent cytotoxicity. After 24 h incubation, MTT (0.5 mg/mL) was added to each well, and after 3–4 h incubation at 37 °C, the supernatant was removed. The formazan crystals were solubilized using 100 μL of DMSO/EtOH (1:1, v/v) and the absorbance values at 570 and 630 nm were determined on the microplate reader Victor 3 from PerkinElmer Life Sciences (Waltham, MA, USA).
Data were analyzed by applying the one-way repeated measures analysis of variance, and Bonferroni’s multiple comparison test followed as a post hoc test. Results are reported as mean SD of at least two to three independent experiments, performed in triplicate. Statistical significance was accepted at p < 0.05.

What is called Ki is a measure of affinity in units of concentration, obtained from inhibition or displacement.

T3 sequence (P21918 whole entry): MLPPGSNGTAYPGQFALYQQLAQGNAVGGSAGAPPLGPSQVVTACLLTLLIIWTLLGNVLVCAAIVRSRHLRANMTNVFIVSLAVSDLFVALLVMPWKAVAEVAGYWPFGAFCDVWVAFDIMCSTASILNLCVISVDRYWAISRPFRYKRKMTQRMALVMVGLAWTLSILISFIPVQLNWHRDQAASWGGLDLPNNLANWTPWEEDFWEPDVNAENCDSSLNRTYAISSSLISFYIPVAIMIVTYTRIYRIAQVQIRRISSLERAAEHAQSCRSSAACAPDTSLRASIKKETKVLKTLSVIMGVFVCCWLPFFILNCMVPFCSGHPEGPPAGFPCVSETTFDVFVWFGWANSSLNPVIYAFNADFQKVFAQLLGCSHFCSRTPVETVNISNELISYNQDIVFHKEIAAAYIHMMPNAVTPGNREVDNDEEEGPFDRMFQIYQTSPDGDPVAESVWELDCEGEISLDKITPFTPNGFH
Sequence of dopamine D2s receptor (P14416 1-414 isoform P14416-2): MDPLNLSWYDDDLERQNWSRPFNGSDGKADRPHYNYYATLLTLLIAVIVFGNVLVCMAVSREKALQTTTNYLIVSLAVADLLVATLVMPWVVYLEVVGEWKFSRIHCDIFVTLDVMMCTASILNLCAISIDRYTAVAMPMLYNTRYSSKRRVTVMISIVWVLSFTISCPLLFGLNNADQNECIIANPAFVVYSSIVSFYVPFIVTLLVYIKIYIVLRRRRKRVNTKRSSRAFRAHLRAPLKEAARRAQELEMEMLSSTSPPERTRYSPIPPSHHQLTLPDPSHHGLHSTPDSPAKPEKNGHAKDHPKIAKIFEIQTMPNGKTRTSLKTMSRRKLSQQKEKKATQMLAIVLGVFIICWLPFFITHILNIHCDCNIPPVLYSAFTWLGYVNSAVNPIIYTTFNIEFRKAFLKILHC
T1 sequence (P28223 whole entry): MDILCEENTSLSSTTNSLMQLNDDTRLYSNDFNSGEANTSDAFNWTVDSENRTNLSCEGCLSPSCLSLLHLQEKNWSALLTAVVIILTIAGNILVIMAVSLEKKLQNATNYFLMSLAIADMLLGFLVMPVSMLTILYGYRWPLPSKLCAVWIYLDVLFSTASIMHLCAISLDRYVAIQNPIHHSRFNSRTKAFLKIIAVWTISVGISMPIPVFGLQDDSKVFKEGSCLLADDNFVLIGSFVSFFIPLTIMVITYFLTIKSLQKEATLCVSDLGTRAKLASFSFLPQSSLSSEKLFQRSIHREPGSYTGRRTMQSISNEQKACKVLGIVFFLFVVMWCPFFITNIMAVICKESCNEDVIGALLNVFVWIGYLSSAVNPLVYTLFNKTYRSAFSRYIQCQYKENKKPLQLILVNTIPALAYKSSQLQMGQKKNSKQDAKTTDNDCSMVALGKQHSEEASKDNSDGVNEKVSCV
Method for dopamine D2s receptor: Competition binding experiments at dopamine D2s and D3 receptor were performed to determine the affinity of the compounds. […] Membrane preparations of transfected CHO-K1 cells stably expressing the human D2s or D3 receptor were performed according to Bautista-Aguilera et al. [26]. The competition binding experiments were conducted as previously reported [26, 27]. Briefly, membrane fractions (D2sR: 25 µg/200 µL; D3R: 20 µg/200 µL) were incubated with [^3H]spiperone (0.2 nM) and test compound for 120 min at room temperature. […] Non-specific binding was determined in the presence of 10 µM haloperidol. Haloperidol was also used as reference compound. Separation of the bound ligand from the free ligand was conducted by filtration through GF/B filters using deionized water.

`Cc1cc(=O)oc2cc(OCCCCN3CCN(c4ncccc4-c4ccncc4)CC3)ccc12` [Compound 12b, 7-(4-(4-([3,4’-Bipyridin]-2-yl)piperazin-1-yl)butoxy)-4-methyl-2H-chromen-2-one]: the Ki at dopamine D2s receptor was 17 nM; in series [1], about 1420 nM; on dopamine D1 receptor, 1530 nM; on dopamine D5 receptor it was 2730 nM. Further, the remaining at 30 min, 10 μM in series [2] worked out at 14%.
Consider `CC1Oc2ccc(OCCCN3CCN(c4ncccc4-c4ccncc4)CC3)cc2NC1=O` (centres unmarked) [Compound 8a, 6-(3-(4-([3,4’-Bipyridin]-2-yl)piperazin-1-yl)propoxy)-2-methyl-2H-benzo[b][1,4]oxazin-3(4H)-one], for which the Ki at dopamine D2s receptor turned out to be 388 nM; in series [1], 782 ± 119 nM; on dopamine D1 receptor it was 6290 nM; on dopamine D5 receptor it was 7410 nM. Moreover, the “recovery of cell viability vs 400 μM H2O2 alone (in words)” value in series [3] is on record as “statistically significant recovery of cell viability”. The remaining at 30 min, 10 μM in series [2] was 4%.
As to `CC1Oc2ccc(OCCCCN3CCN(c4ncccc4-c4ccncc4)CC3)cc2NC1=O` (centres unmarked) [Compound 8b, 6-(4-(4-([3,4’-Bipyridin]-2-yl)piperazin-1-yl)butoxy)-2-methyl-2H-benzo[b][1,4]oxazin-3(4H)-one], the Ki at dopamine D2s receptor came out at 9.08 nM; in series [1] it was 611 ± 87 nM; on dopamine D1 receptor it was 1710 nM; on dopamine D5 receptor it was 8200 nM. Besides, in series [3], the “recovery of cell viability vs 400 μM H2O2 alone (in words)” value is listed as “statistically significant recovery of cell viability”. Further, the remaining at 30 min, 10 μM in series [2] turned out to be 14%.
For the compound `Cn1c(=O)cnn(CCCCN2CCN(c3ncccc3-c3ccncc3)CC2)c1=O` [Compound 11b, 2-(4-(4-([3,4’-Bipyridin]-2-yl)piperazin-1-yl)butyl)-4-methyl-1,2,4-triazine-3,5(2H,4H)-dione], the Ki (on dopamine D2s receptor; in series [1]; on dopamine D1 receptor; on dopamine D5 receptor) was over 10000 nM throughout. Moreover, the remaining at 30 min, 10 μM in series [2] was 3%.
Turning to `Cn1c(=O)cnn(CCCCN2CCN(c3ccc(F)cc3-c3ccc(C#N)cc3)CC2)c1=O` [Compound 10b, 5’-Fluoro-2’-(4-(4-(4-methyl-3,5-dioxo-4,5-dihydro-1,2,4-triazin-2(3H)-yl)butyl)piperazin-1-yl)-[1,1’-biphenyl]-4-carbonitrile], the Ki is over 10000 nM at dopamine D2s receptor, 80.7 ± 3.1 nM in series [1], 140 nM at dopamine D1 receptor and 101 nM at dopamine D5 receptor. Besides, the remaining at 30 min, 10 μM in series [2] turned out to be 26%. Further, the “in vitro metabolic stability (in words)” value in series [2] is reported as “borderline stability value”.
Consider `Cn1c(=O)cnn(CCCN2CCN(c3ccc(F)cc3-c3ccc(C#N)cc3)CC2)c1=O` [Compound 10a, 5’-Fluoro-2’-(4-(3-(4-methyl-3,5-dioxo-4,5-dihydro-1,2,4-triazin-2(3H)-yl)propyl)piperazin-1-yl)-[1,1’-biphenyl]-4-carbonitrile], for which the inhibitory constant (Ki) is over 10000 nM on dopamine D2s receptor, 96.8 ± 11 nM in series [1], 104 nM on dopamine D1 receptor and 180 nM at dopamine D5 receptor. The remaining at 30 min, 10 μM in series [2] was 5%.
For `Cn1c(=O)cnn(CCCN2CCN(c3ncccc3-c3ccncc3)CC2)c1=O` [Compound 11a, 2-(3-(4-([3,4’-Bipyridin]-2-yl)piperazin-1-yl)propyl)-4-methyl-1,2,4-triazine-3,5(2H,4H)-dione] the same measures were over 10000 nM, over 10000 nM, over 10000 nM, over 10000 nM and 4%.
For `COc1ccc(-c2cc(F)ccc2N2CCN(CCCCn3ncc(=O)n(C)c3=O)CC2)cc1` [Compound 9b, 2-(4-(4-(5-Fluoro-4’-methoxy-[1,1’-biphenyl]-2-yl)piperazin-1-yl)butyl)-4-methyl-1,2,4-triazine-3,5(2H,4H)-dione], the inhibitory constant (Ki) is over 10000 nM on dopamine D2s receptor, 39.4 ± 7.4 nM in series [1], 88.3 nM on dopamine D1 receptor and 222 nM at dopamine D5 receptor. The “recovery of cell viability vs 400 μM H2O2 alone (in words)” value in series [3] is listed as “statistically significant recovery of cell viability”. Besides, the remaining at 30 min, 10 μM in series [2] turned out to be 45%.
On to `Cc1cc(=O)oc2cc(OCCCN3CCN(c4ncccc4-c4ccncc4)CC3)ccc12` [Compound 12a, 7-(3-(4-([3,4’-Bipyridin]-2-yl)piperazin-1-yl)propoxy)-4-methyl-2H-chromen-2-one], for which the inhibitory constant (Ki) is 300 nM at dopamine D2s receptor, 315 ± 44 nM in series [1], 2200 nM at dopamine D1 receptor and over 10000 nM on dopamine D5 receptor. Further, the remaining at 30 min, 10 μM in series [2] stood at 19%. For the same compound, in series [2], the “in vitro metabolic stability (in words)” value was “borderline stability value”.

The values are drawn from PMC8877291, “Design and Synthesis of Arylpiperazine Serotonergic/Dopaminergic Ligands with Neuroprotective Properties” (Molecules, 2022).
